Reference: patent US20230293411A1, “BIODEGRADABLE UV ABSORBERS” (BASF SE, priority 2020, published 2023)
Where a name gives a salt, the structure may show the parent alone. Read-outs that look alike come from different tables or passages of the source.

Tests used:
[1] = Specific extinction coefficient by UV/VIS spectrophotometry in water; assay type: physicochemical
[2] = Biodegradation, OECD 301F manometric respirometry test; conditions: inferred from components; the salt itself was not tested
[3] = Absorbance of croconic acid salts in formulation on PMMA plates; assay type: physicochemical; conditions: for Absorbance of the formulation: Formulations 1 and 2, 30 mg on PMMA plate, 15 minutes equilibration, 290-400 nm, FIG. 2, compared to Table 1
Description: The absorbance of Formulation 1 and 2 was determined as follows: […]
30 mg milligram of product were evenly spread on roughened PMMA plates (Heliosplate SB6, Helioscreen Creil/France) using a presaturated finger cot. After an equilibration time of 15 minutes transmission measurements between 290 and 400 nm were carried out using a spectrophotometer equipped with an integrating sphere (UV Transmittance Analyzer UV1000-S, Labsphere North Sutton/US).

| SMILES | E1, 1 (specific extinction coefficient at λmax) [1] | Maximum absorbance wavelength (λmax) [1] | Biodegradability concluded from croconic acid and triethanolamine [2] | Absorbance of the formulation [3] | E1, 1 (specific extinction coefficient at λmax) ([1]; in water, d=1 cm, at λmax) | Maximum absorbance wavelength (λmax) ([1]; in water, optical pathlength d=1 cm, spectrum 250 nm to 500 nm) | Crystallization after water evaporation ([3]; in formulation on PMMA plate) |
| --- | --- | --- | --- | --- | --- | --- | --- |
| O=c1c(O)c(O)c(=O)c1=O [Compound A, 4,5-Dihydroxy-4-cyclopentene-1,2,3-trione di-triethanolammonium Salt] | 844 | 364 nm | biodegradable | within the expected range | – | – | – |
| O=c1c([O-])c([O-])c(=O)c1=O.[Na+].[Na+] [Comp. Compound 1, 4,5-Dihydroxy-4-cyclopentene-1,2,3-trione di-Sodium Salt] | – | – | – | lower | 1996 | 364 nm | crystallization |
| O=c1c([O-])c([O-])c(=O)c1=O.[K+].[K+] [Comp. Compound 2, 4,5-Dihydroxy-4-cyclopentene-1,2,3-trione di-Potassium Salt] | 1704 | 364 nm | – | – | – | – | – |
